Earlier results, collected in PubChem BioAssay AID1259410 (Chemical Carcinogenesis Research Information System (CCRIS), 2018).

Tested on: rodent tumor promotion studies, tumor incidence
Assay: CCRIS tumor promotion studies
Conditions: Route [Promoter]: DERMAL, Species: MOUSE

CCCCCCCCCCCCCC(=O)O[C@@H]1[C@@H](C)[C@@]2(O)[C@@H](C=C(CO)C[C@]3(O)C(=O)C(C)=C[C@@H]23)[C@@H]2C(C)(C)[C@]12OC(C)=O
outcome (Carcinogen: 1,2-DIHYDRO-1,2-DIHYDROXY-5,6-DIMETHYLCHRYSENE, 139562-14-4, Doses [Carcinogen]: 33, 100 NMOL IN 0.1 ML ACETONE ONCE, Doses [Promoter]: 0, 2.5 UG IN 0.1 ML ACETONE 3/WK FOR 20 WK BEGINNING 10 D POST CARCINOGEN DOSE (STUDY DURATION: 20 WK), Route [Carcinogen]: DERMAL, Strain/Sex: CD-1/FEMALE): skin: tumor | outcome (Carcinogen: 1,3-DIMETHYLBENZO[B]FLUORANTHRENE, 95741-51-8, Doses [Carcinogen]: 40, 100 NMOL TOTAL DOSES GIVEN IN 10 SUBDOSES 1/2 D IN 0.1 ML ACETONE, Doses [Promoter]: 2.5 UG IN 0.1 ML ACETONE 3/WK FOR 30 WK BEGINNING 10 D POST CARCINOGEN TREATMENT (STUDY DURATION: 34 WK), Route [Carcinogen]: DERMAL, Strain/Sex: CD-1/FEMALE): skin: tumors | outcome (Carcinogen: 1-METHYL-4H-CYCLOPENTA[DEF]PHENANTHRENE, 98090-89-2, Doses [Carcinogen]: 100 UG IN ACETONE (100 µL) 1/2 D FOR A TOTAL OF 10 SUBDOSES (TOTAL DOSE 1 MG), Doses [Promoter]: 0.0025% IN 100 µL ACETONE 3/WK FOR 20 WK BEGINNING POST CARCINOGEN TREATMENT (STUDY DURATION: 23 WK), Route [Carcinogen]: DERMAL, Strain/Sex: CD-1/FEMALE): skin: tumors | outcome (Carcinogen: 1-METHYLBENZO[B]FLUORANTHRENE, 95741-48-3, Doses [Carcinogen]: 100 NMOL TOTAL DOSE GIVEN IN 10 SUBDOSES 1/2 D IN 0.1 ML ACETONE, Doses [Promoter]: 2.5 UG IN 0.1 ML ACETONE 3/WK FOR 30 WK BEGINNING 10 D POST CARCINOGEN TREATMENT (STUDY DURATION: 34 WK), Route [Carcinogen]: DERMAL, Strain/Sex: CD-1/FEMALE): skin: tumors | outcome (Carcinogen: 2'-(4-NITROPHENOXY)OXIRANE, 59485-08-4, Doses [Carcinogen]: 5 UMOL IN 0.2 ML 15% DMSO IN ACETONE ONCE, Doses [Promoter]: 0, 15 NMOL IN 0.1 ML ACETONE ONCE 18-24 HR PRIOR TO CARCINOGEN DOSE THEN BEGINNING 1 WK LATER 2/WK FOR DURATION OF STUDY, Route [Carcinogen]: DERMAL, Strain/Sex: ICR/FEMALE): skin: papilloma | outcome (Carcinogen: 2-AMINO-3-METHYL-9H-PYRIDO[2,3-B]INDOLE, 68006-83-7, Doses [Carcinogen]: 0, 4 MG/0.1 ML DMSO 2/WK FOR 5 WK, Doses [Promoter]: 2.5 UG IN 0.1 ML ACETONE 2/WK FOR 47 WK BEGINNING 1 WK POST CARCINOGEN TREATMENT (STUDY DURATION: 48 WK), Route [Carcinogen]: DERMAL, Strain/Sex: CD-1/FEMALE): skin: tumor | outcome (Carcinogen: 2-AMINO-5-PHENYLPYRIDINE, 33421-40-8, Doses [Carcinogen]: 0, 10 MG/0.1 ML DMSO 2/WK FOR 5 WK, Doses [Promoter]: 2.5 UG IN 0.1 ML ACETONE 2/WK FOR 47 WK BEGINNING 1 WK POST CARCINOGEN TREATMENT (STUDY DURATION: 48 WK), Route [Carcinogen]: DERMAL, Strain/Sex: CD-1/FEMALE): skin: tumor | outcome (Carcinogen: 2-METHYLBENZO[K]FLUORANTHENE, 95741-57-4, Doses [Carcinogen]: 4 UMOL (TOTAL DOSE) ADMINISTERED IN 10 SUBDOSES 1/2 D, Doses [Promoter]: 2.5 UG IN 0.1 ML ACETONE 3/WK FOR 30 WK BEGINNING 10 D POST CARCINOGEN TREATMENT (STUDY DURATION: 33 WK), Route [Carcinogen]: DERMAL, Strain/Sex: CRL:CD-1/FEMALE): skin: tumor | outcome (Carcinogen: 3'-AZIDO-2',3'-DIDEOXYTHYMIDINE, 30516-87-1, Doses [Carcinogen]: 0, 25 MG IN 0.5 ML DISTILLED WATER ADMINISTERED TO PREGNANT RATS ON DAYS 12-18 OF GESTATION, Doses [Promoter]: 2 UG IN 0.1 ML DISTILLED WATER 2/WK FOR 17 WK THEN 5 UG IN 0.1 ML DISTILLED WATER 2/WK FROM WK 18 TO 35 ADMINISTERED TO, Route [Carcinogen]: GAVAGE, Strain/Sex: CD-1/MALE,FEMALE): skin:tumor | outcome (Carcinogen: 3-AMINO-1,4-DIMETHYL-5H-PYRIDO[4,3-B]INDOLE, 62450-06-0, Doses [Carcinogen]: 0, 2 MG/0.1 ML DMSO 2/WK FOR 5 WK, Doses [Promoter]: 2.5 UG IN 0.1 ML ACETONE 2/WK FOR 47 WK BEGINNING 1 WK POST CARCINOGEN TREATMENT (STUDY DURATION: 48 WK), Route [Carcinogen]: DERMAL, Strain/Sex: CD-1/FEMALE): skin: tumor | outcome (Carcinogen: 3-AMINO-1-METHYL-5H-PYRIDO[4,3-B]INDOLE, 62450-07-1, Doses [Carcinogen]: 0, 2 MG/0.1 ML DMSO 2/WK FOR 5 WK, Doses [Promoter]: 2.5 UG IN 0.1 ML ACETONE 2/WK FOR 47 WK BEGINNING 1 WK POST CARCINOGEN TREATMENT (STUDY DURATION: 48 WK), Route [Carcinogen]: DERMAL, Strain/Sex: CD-1/FEMALE): skin: tumor | outcome (Carcinogen: 3-METHYLBENZO[B]FLUORANTHRENE, 95741-50-7, Doses [Carcinogen]: 40, 100 NMOL TOTAL DOSE GIVEN IN 10 SUBDOSES 1/2 D IN 0.1 ML ACETONE, Doses [Promoter]: 2.5 UG IN 0.1 ML ACETONE 3/WK FOR 30 WK BEGINNING 10 D POST CARCINOGEN TREATMENT (STUDY DURATION: 34 WK), Route [Carcinogen]: DERMAL, Strain/Sex: CD-1/FEMALE): skin: tumors | outcome (Carcinogen: 3-METHYLCHOLANTHRENE, 56-49-5, Doses [Promoter]: 0, 1.8 NMOL IN 0.1 ML ACETONE 2/WK FOR 4 WK BEGINNING 6 WK POST CARCINOGEN DOSE (STUDY DURATION: 2 YR), Route [Carcinogen]: SUBCUTANEOUS, Strain/Sex: S/RVCRI/FEMALE): skin: tumor | outcome (Carcinogen: 4-CYCLOPENTA[DEF]CHRYSEN-4-ONE, 86853-91-0, Doses [Carcinogen]: 100 UG IN ACETONE (100 µL) 1/2 D FOR A TOTAL OF 10 SUBDOSES (TOTAL DOSE 1 MG), Doses [Promoter]: 0.0025% IN 100 µL ACETONE 3/WK FOR 20 WK BEGINNING POST CARCINOGEN TREATMENT (STUDY DURATION: 23 WK), Route [Carcinogen]: DERMAL, Strain/Sex: CD-1/FEMALE): skin: tumors | outcome (Carcinogen: 4-FLUOROBENZO[B]FLUORANTHENE, 146746-67-0, Doses [Carcinogen]: 10, 40, 120, 400 NMOL (TOTAL DOSE) APPLIED 1/2 D FOR 10 SUBDOSES, Doses [Carcinogen]: 10, 40, 120, 400 NMOL (TOTAL DOSE) APPLIED 1/2 D FOR 10 SUBDOSES, Doses [Promoter]: 0, 2.5 UG IN 100 µL ACETONE 3/WK FOR 20 WK BEGINNING 10 D POST CARCINOGEN TREATMENT (STUDY DURATION: 22 WK), Route [Carcinogen]: DERMAL, Strain/Sex: CRL:CD-1/FEMALE): skin: tumor | outcome (Carcinogen: 4-FLUOROBENZO[J]FLUORANTHENE, 129286-36-8, Doses [Carcinogen]: 0.3, 1, 2 UMOL (TOTAL DOSE) ADMINISTERED IN SUBDOSES 1/2 D, Doses [Carcinogen]: 0.3, 1, 2 UMOL (TOTAL DOSE) ADMINISTERED IN SUBDOSES 1/2 D, Doses [Promoter]: 2.5 UG IN 100 µL ACETONE 3/WK FOR 20 WK BEGINNING 10 D POST LAST CARCINOGEN DOSE (STUDY DURATION: 27 WK), Route [Carcinogen]: DERMAL, Strain/Sex: CD-1/FEMALE): skin: tumor | outcome (Carcinogen: 4-NITROPHENYL VINYL ETHER, 940-14-7, Doses [Carcinogen]: 5 UMOL IN 0.2 ML 15% DMSO IN ACETONE ONCE, Doses [Promoter]: 0, 15 NMOL IN 0.1 ML ACETONE ONCE 18-24 HR PRIOR TO CARCINOGEN DOSE THEN BEGINNING 1 WK LATER 2/WK FOR DURATION OF STUDY, Route [Carcinogen]: DERMAL, Strain/Sex: ICR/FEMALE): skin: papilloma | outcome (Carcinogen: 4H-CYCLOPENTA[DEF]CHRYSENE, 202-98-2, Doses [Carcinogen]: 100 UG IN ACETONE (100 µL) 1/2 D FOR A TOTAL OF 10 SUBDOSES (TOTAL DOSE 1 MG), Doses [Promoter]: 0.0025% IN 100 µL ACETONE 3/WK FOR 20 WK BEGINNING POST CARCINOGEN TREATMENT (STUDY DURATION: 23 WK), Route [Carcinogen]: DERMAL, Strain/Sex: CD-1/FEMALE): skin: tumors | outcome (Carcinogen: 5,6-DIMETHYLCHRYSENE, 3697-27-6, Doses [Carcinogen]: 100 NMOL IN 0.1 ML ACETONE ONCE, Doses [Promoter]: 0, 2.5 UG IN 0.1 ML ACETONE 3/WK FOR 20 WK BEGINNING 10 D POST CARCINOGEN DOSE (STUDY DURATION: 20 WK), Route [Carcinogen]: DERMAL, Strain/Sex: CD-1/FEMALE): skin: tumor | outcome (Carcinogen: 5-CHLOROMETHYLFURFURAL, 1623-88-7, Doses [Carcinogen]: 0, 10, 25 UMOL IN O.2 ML ACETONE:DMSO ONCE, Doses [Carcinogen]: 0, 10, 25 UMOL IN O.2 ML ACETONE:DMSO ONCE, Doses [Promoter]: 0, 2.5 UG 2/WK FOR 24 WK BEGINNING 1 WK POST CARCINOGEN DOSE (STUDY DURATION: 24 WK), Route [Carcinogen]: DERMAL, Strain/Sex: CD-1/FEMALE): skin: papilloma | outcome (Carcinogen: 5-FLUOROBENZO[B]FLUORANTHENE, 146746-68-1, Doses [Carcinogen]: 10, 40, 120, 400 NMOL (TOTAL DOSE) APPLIED 1/2 D FOR 10 SUBDOSES, Doses [Carcinogen]: 10, 40, 120, 400 NMOL (TOTAL DOSE) APPLIED 1/2 D FOR 10 SUBDOSES, Doses [Promoter]: 0, 2.5 UG IN 100 µL ACETONE 3/WK FOR 20 WK BEGINNING 10 D POST CARCINOGEN TREATMENT (STUDY DURATION: 22 WK), Route [Carcinogen]: DERMAL, Strain/Sex: CRL:CD-1/FEMALE): skin: tumor | outcome (Carcinogen: 5-HYDROXYMETHYLFURFURAL, 67-47-0, Doses [Carcinogen]: 0, 10, 25 UMOL IN 0.2 ML ACETONE:DMSO ONCE, Doses [Carcinogen]: 0, 10, 25 UMOL IN 0.2 ML ACETONE:DMSO ONCE, Doses [Promoter]: 0, 2.5 UG 2/WK FOR 24 WK BEGINNING 1 WK POST CARCINOGEN DOSE (STUDY DURATION: 24 WK), Route [Carcinogen]: DERMAL, Strain/Sex: CD-1/FEMALE): skin: papilloma | outcome (Carcinogen: 5-METHYLCHRYSENE, 3697-24-3, Doses [Carcinogen]: 33, 100 NMOL IN 0.1 ML ACETONE ONCE, Doses [Promoter]: 2.5 UG IN 0.1 ML ACETONE 3/WK FOR 25 WK BEGINNING 10 D POST INITIATION (STUDY DURATION: 27 WK), Route [Carcinogen]: DERMAL, Strain/Sex: CD-1/FEMALE): skin: tumors | outcome (Carcinogen: 5-SULFOOXYMETHYLFURFURAL, 159091-35-7, Doses [Carcinogen]: 0, 25 UMOL IN 0.2 ML ACETONE:DMSO ONCE, Doses [Promoter]: 0, 2.5 UG 2/WK FOR 24 WK BEGINNING 1 WK POST CARCINOGEN DOSE (STUDY DURATION: 24 WK), Route [Carcinogen]: DERMAL, Strain/Sex: CD-1/FEMALE): skin: papilloma | outcome (Carcinogen: 6-FLUOROBENZO[B]FLUORANTHENE, 125811-13-4, Doses [Carcinogen]: 10, 40, 120, 400 NMOL (TOTAL DOSE) APPLIED 1/2 D FOR 10 SUBDOSES, Doses [Carcinogen]: 10, 40, 120, 400 NMOL (TOTAL DOSE) APPLIED 1/2 D FOR 10 SUBDOSES, Doses [Promoter]: 0, 2.5 UG IN 100 µL ACETONE 3/WK FOR 20 WK BEGINNING 10 D POST CARCINOGEN TREATMENT (STUDY DURATION: 22 WK), Route [Carcinogen]: DERMAL, Strain/Sex: CRL:CD-1/FEMALE): skin: tumor
